Assay results taken from PMC12024912, “Druggability Studies of Benzene Sulfonamide Substituted Diarylamide (E3) as a Novel Diuretic” (Biomedicines, 2025).

Experiments:
rat UT-A1 = molecular target: T1, rat UT-A1 (Rattus norvegicus, UniProt Q62668); assay: Transwell assay of UT-A1 inhibition in UT-A1-MDCK cells; type: cell-based; details: read-out: IC50 against UT-A1-mediated urea permeability
T1 construct: expressed in transfected cells
T1 sequence (Q62668 1-929): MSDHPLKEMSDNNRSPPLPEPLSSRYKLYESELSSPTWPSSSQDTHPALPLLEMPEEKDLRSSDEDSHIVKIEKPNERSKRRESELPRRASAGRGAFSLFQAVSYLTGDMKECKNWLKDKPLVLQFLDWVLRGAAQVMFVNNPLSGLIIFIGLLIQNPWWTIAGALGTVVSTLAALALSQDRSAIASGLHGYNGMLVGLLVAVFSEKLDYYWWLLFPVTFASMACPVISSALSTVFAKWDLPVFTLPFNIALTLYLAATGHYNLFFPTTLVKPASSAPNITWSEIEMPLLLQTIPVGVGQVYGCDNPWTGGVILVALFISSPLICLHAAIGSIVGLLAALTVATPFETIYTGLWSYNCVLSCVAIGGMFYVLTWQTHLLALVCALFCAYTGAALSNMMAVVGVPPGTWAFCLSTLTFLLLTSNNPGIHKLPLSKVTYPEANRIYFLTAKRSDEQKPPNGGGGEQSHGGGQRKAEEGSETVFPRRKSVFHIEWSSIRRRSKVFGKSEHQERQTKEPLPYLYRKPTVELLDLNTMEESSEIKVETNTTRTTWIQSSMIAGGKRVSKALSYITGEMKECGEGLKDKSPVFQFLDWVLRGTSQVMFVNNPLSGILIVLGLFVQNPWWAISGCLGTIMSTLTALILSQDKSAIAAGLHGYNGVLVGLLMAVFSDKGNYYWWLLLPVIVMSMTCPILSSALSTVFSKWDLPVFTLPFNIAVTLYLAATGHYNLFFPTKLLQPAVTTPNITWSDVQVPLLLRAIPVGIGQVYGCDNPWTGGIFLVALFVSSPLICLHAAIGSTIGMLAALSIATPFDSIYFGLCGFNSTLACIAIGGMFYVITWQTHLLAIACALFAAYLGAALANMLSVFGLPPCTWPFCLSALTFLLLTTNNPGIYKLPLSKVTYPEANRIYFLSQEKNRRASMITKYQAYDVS
Method: MDCK cells stably expressing rat UT-A1 or UT-B were cultured in DMEM supplemented with 10% FBS, and the mRNA levels of UT-A1 and UT-B were measured in our previous research. Urea flux was assessed according to previously established methods. MDCK cells (2 × 10^5 cells/cm^2) were grown on 12 mm collagen-coated Costar Transwell inserts (0.4 μm pore size, Corning) for 4 d at 37 °C in the presence of 5% CO2. Once the cells on the apical side formed a tight monolayer (transepithelial resistance 1 kΩ/cm^2), PBS (pH = 7.4, containing 10 μmol/L forskolin) with E3 or DMSO was added to the top (0.25 mL) and bottom (1 mL) compartments, and the cultures were incubated in the absence of urea for 30 min at 37 °C. As UT-B is located in the plasma membrane while UT-A1 resides in the cytoplasm, forskolin was used to stimulate the translocation of UT-A1 from the cytoplasm to the membrane for urea transport. Subsequently, the solution in the bottom compartment was replaced with PBS (pH 7.4, containing 10 μmol/L forskolin and E3 or DMSO) supplemented with 15 mmol/L urea. Apical fluid samples (5 μL) were collected at 0, 1, 3, 5, 10, 15, 20, 30, 40, 50, and 60 min. The samples were subjected to an assay for urea (Urea Colorimetric Assay Kit (Diacetyl Oxime Method), Elabscience, Wuhan, China) according to the kit procedure. Then, the inhibition rate was calculated as described previously.

[1] = Liver homogenate metabolic stability, mouse; type: in vitro ADME
Method: (§1) Plasma from mice, rats, rabbits, and humans was obtained from blood after centrifugation at 3000 r/min for 10 min. Simulated gastric fluid (SGF, pH = 1, containing pepsin) and simulated intestinal fluid (SIF, pH = 6.8, containing trypsin) were configured previously in the experiments. SD rats and mice were collected, and after removing the mucus layer from the small intestine and colon, 20 times the volume of liquid bacterial culture medium was added. An intestinal microbiota suspension was obtained after anaerobic cultivation on a shaking table at 37 °C for 12 h. In the aforementioned systems, E3 was added at a final concentration of 1 μmol/L at 37 °C for different incubation times (0, 10, 20, 30, 60, 120, and 240 min). In liver metabolic stability assays, E3 was incubated with liver microsomes or liver homogenate from mice or rats for 60 min at 37 °C. The stop solution, 5 ng/mL tolbutamide (internal standard, IS) in acetonitrile, was added to stop the metabolic process. Post-centrifugation (18,000× g, 10 min, 4 °C), supernatants were subjected to liquid chromatography–tandem mass spectrometry (LC–MS/MS). Analyte-to-IS peak area ratios quantified residual percentages via Equation (2):Remaining% = (E3peak area/ISpeak area at different time)/(E3peak area/ISpeak area at 0 min) × 100%.(2)

[2] = Acute oral toxicity test in mice; type: in vivo; details: both sexes, mouse, in vivo, 5000 mg/kg; mice; oral; 14-day acute toxicity assay
Method: (§2) The acute oral toxicity test was performed according to “Guidance on Single Dose Toxicity Study for Pharmaceuticals” (2014), “Guidance for industry: single dose acute toxicity testing for pharmaceuticals” (1996). The initial dose for preliminary trials was established at 5000 mg/kg. A total of three female and three male mice were utilized (one of each sex for preliminary experiments and two for subsequent experiments). Following a 12 h fasting period, one male and one female mouse were selected and administered E3. After 24 h of confirming survival and the absence of abnormal behavior, the remaining four animals were given the same dose. The control group was given solvent (0.5% CMC-Na). Observations of all animals on the day of dosing (d 0) and in the days following were recorded, including general conditions (signs of toxicity, onset of symptoms, recovery period), changes in body weight, and mortality. After 14 d, blood and vital organ tissues were collected, and serum biochemical indicators as well as histopathological examinations were conducted.

mice = assay: Acute oral toxicity test in mice; type: in vivo
Method: as §2

[3] = Liver microsome metabolic stability, mouse; type: in vitro ADME; details: 60 min incubation, 37 °C
Method: as §1

Question: With CC(=O)c1ccc(C(=O)Nc2cccc(NS(=O)(=O)c3ccccc3)c2)o1 [Compound E3, 5-acetyl-N-(3-(phenylsulfonamido)phenyl)furan-2-carboxamide] as the molecule, how does the IC50 (rat UT-A1) read?
Answer: 18 nM

Question: What about the “CLhep, mouse liver homogenate” value ([1]; calculated with 45 mg/g liver, 50 g liver/kg) of the same molecule?
Answer: 99.3 mL/min/kg

Question: And the remaining at 1 h ([1]; mouse, liver homogenate, 60 min incubation, 37 °C, n=3)?
Answer: 39.8%

Question: And the LD50 at 14 d [2]?
Answer: > 5000 mg/kg

Question: What about the Brain organ index (mice; female mice, 5g/kg, n=3) of the same molecule?
Answer: 1.72±0.10%

Question: And the Kidney organ index (mice; female mice, 5g/kg, n=3)?
Answer: 1.06±0.02%

Question: What about the Liver organ index (mice; female mice, 5g/kg, n=3) of the same molecule?
Answer: 4.86±0.08%

Question: What about the Lung organ index (mice; female mice, 5g/kg, n=3) of the same molecule?
Answer: 0.73±0.04%

Question: What about the Ovary organ index (mice; female mice, 5g/kg, n=3) of the same molecule?
Answer: 0.11±0.02%

Question: And the Spleen organ index (mice; female mice, 5g/kg, n=3)?
Answer: 0.4±0.01%

Question: What about the Thymus organ index (mice; female mice, 5g/kg, n=3) of the same molecule?
Answer: 0.27±0.06%

Question: What about the Uterus organ index (mice; female mice, 5g/kg, n=3) of the same molecule?
Answer: 0.3±0.02%

Question: And the Brain organ index (mice; male mice, 5g/kg, n=3)?
Answer: 1.35±0.01%

Question: What about the Epididymis organ index (mice; male mice, 5g/kg, n=3) of the same molecule?
Answer: 0.17±0.01%

Question: And the Kidney organ index (mice; male mice, 5g/kg, n=3)?
Answer: 1.26±0.02%

Question: And the Liver organ index (mice; male mice, 5g/kg, n=3)?
Answer: 5.16±0.12%

Question: And the Lung organ index (mice; male mice, 5g/kg, n=3)?
Answer: 0.72±0.02%

Question: What about the Spleen organ index (mice; male mice, 5g/kg, n=3) of the same molecule?
Answer: 0.37±0.02%

Question: What about the Testis organ index (mice; male mice, 5g/kg, n=3) of the same molecule?
Answer: 0.73±0.02%

Question: What about the Thymus organ index (mice; male mice, 5g/kg, n=3) of the same molecule?
Answer: 0.25±0.01%

Question: What about the “H&E staining of heart, kidney, liver, spleen, and brain” value (mice; mouse, in vivo, po, 5000 mg/kg) of the same molecule?
Answer: no apparent abnormalities

Question: What about the organ indexes (mice; mouse, in vivo, po, 5000 mg/kg) of the same molecule?
Answer: no significant difference

Question: And the “representative blood biochemical indicators” value (mice; mouse, in vivo, po, 5000 mg/kg)?
Answer: not statistically altered

Question: What about the “remaining amount, mouse liver microsomes” value [3] of the same molecule?
Answer: 36.8%
